This assay in a line: Inhibition of rat intestinal maltase.

Experimental findings from BindingDB's records for doi:10.1021/np900435d (University of Florence, 2009) are described below.

In turn, `O[C@H]1[C@H](O)[C@@H](O)CN2C[C@@H](O)[C@@H](O)[C@H]12` [(-)-uniflorine A] yielded a concentration for half-maximal inhibition (IC50) of 12 µM.

Molecule `O[C@H]1[C@H]2[C@H](O)[C@H](O)CN2[C@H](O)C[C@H]1O` [uniflorine B] had a half-maximal inhibitory concentration (IC50) of 4 µM. This IC50 lies about 3-fold lower than the previous one.
